The test system of this assay is STING activation (IFNβ release) in iBMDMs. The assay is described as follows: IFNβ release ELISA after STING ligand (or LPS) stimulation, iBMDMs. The assay is classed as cell-based, mouse. An outline of the steps:
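iBMDMs were stimulated with a STING ligand such as 3′3′-cGAMP, or with LPS. Secreted IFNβ in culture medium was measured by commercial mouse or human IFNβ ELISA.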

Where [1] appears, read: iBMDMs, 3′3′-cGAMP 10 μg/ml, 16 hours, compound 10 μM.

Molecules are shown by their SMILES. Where a name gives a salt, the structure may show the parent alone. Read-outs that look alike come from different tables or passages of the source.

This is an account of results in patent publication US11179412B2, “Methods of treating conditions involving elevated inflammatory response” (University of Pittsburgh—Of the Commonwealth System of …, priority 2017, dated 2021).

Consider `Cc1[nH]c(/C=C2\C(=O)Nc3ccc(S(=O)(=O)Cc4c(Cl)cccc4Cl)cc32)c(C)c1C(=O)N1CCC[C@@H]1CN1CCCC1` [PHA-665752], for which the “fold increase in IFN-β release” value under setting [1] worked out at 0.43 fold. On the same count and under the same terms, the figure for `CC(C)CC(=O)Nc1[nH]nc2c1CN(C(=O)C1CCN(C)CC1)C2(C)C` [PHA-793887] is 2.28 fold; for `CCCc1ccc(OCC(=O)N(Cc2nc(-c3cccnc3)no2)C(C)C)cc1` [PI-1840] it is 0.60 fold; for `COc1cc(OC)c(NC(=O)Nc2cc(C)on2)cc1Cl` [PNU-120596] it is 0.12 fold.

For `CC(C)(C)n1nc(-c2ccc(Cl)cc2)c2c(N)ncnc21` [PP2], the “fold increase in IFN-β release” value under setting [1] was found to be 0.14 fold. Consider `N#CSc1cc(SC#N)c(N)nc1N` [PR-619], for which the “fold increase in IFN-β release” value under setting [1] is recorded as 0.79 fold.

As to `Br.COc1cc(Br)c(Nc2nc(-c3c(C)nc4ncccn34)cs2)c(Br)c1` [PTC-209 HBr], the “fold increase in IFN-β release” value under setting [1] is given as 0.27 fold. The same measure, in the same setting: the figure for `COc1cc(Br)c(Nc2nc(-c3c(C)nc4ncccn34)cs2)c(Br)c1` [PTC-209] is 2.11 fold; for `CC(C)NCCCn1c(Sc2cc3c(cc2I)OCO3)nc2c(N)ncnc21` [PU-H71] it is 1.13 fold.

Regarding `CCOC(=O)c1ccc(N2NC(=O)/C(=C/c3ccc([N+](=O)[O-])o3)C2=O)cc1` [PYR-41], the “fold increase in IFN-β release” value under setting [1] is 1.13 fold.

In the case of `C1=C/COCc2cc(ccc2OCCN2CCCC2)Nc2nccc(n2)-c2cccc(c2)COC/1` [Pacritinib (SB1518), Pacritinib], under setting [1], the “fold increase in IFN-β release” value is reported as 1.58 fold. For the compound `CC(=O)c1c(C)c2cnc(Nc3ccc(N4CCNCC4)cn3)nc2n(C2CCCC2)c1=O` [Palbociclib (PD-0332991) HCl, Palbociclib], the “fold increase in IFN-β release” value under setting [1] was found to be 0.94 fold.

`CC(=O)O[C@H]1C[C@@H]2CC[C@@H]3[C@H](CC[C@@]4(C)[C@H]3C[C@H]([N+]3(C)CCCCC3)[C@@H]4OC(C)=O)[C@@]2(C)C[C@@H]1[N+]1(C)CCCCC1.[Br-].[Br-]` [Pancuronium dibromide]: the “fold increase in IFN-β release” value under setting [1] was 1.20 fold. On to `Cc1[nH]c2ccccc2c1CCNCc1ccc(/C=C/C(=O)NO)cc1` [Panobinostat (LBH589), Panobinostat], for which the “fold increase in IFN-β release” value under setting [1] stood at 0.61 fold. On to `Oc1cc(O)cc(/C=C/c2ccc(O)c(O)c2)c1` [Piceatannol], for which the “fold increase in IFN-β release” value under setting [1] is recorded as 0.42 fold. Still for that read-out and setting: next, `COc1ccc(-c2nc3ccc(C4=NNC(=O)CC4C)cc3[nH]2)cc1` (stereo not shown) [Pimobendan]: 1.79 fold. On the same count and under the same terms, the figure for `O=C(NNc1ccccc1)c1ccncc1` [PluriSln #1 (NSC 14613)] is 0.62 fold. For `Nc1cccc2c1C(=O)N(C1CCC(=O)NC1=O)C2=O` (stereo not shown) [Pomalidomide], the “fold increase in IFN-β release” value under setting [1] amounted to 2.12 fold. The same measure, in the same setting: the figure for `C#CCC(Cc1cnc2nc(N)nc(N)c2n1)c1ccc(C(=O)N[C@@H](CCC(=O)O)C(=O)O)cc1` (stereo partly shown) [Pralatrexate] is 4.31 fold.

For the compound `CCCN[C@H]1CCc2nc(N)sc2C1` [Pramipexole], the “fold increase in IFN-β release” value under setting [1] was 2.07 fold.

Take `CC(C)NCC(O)COc1cccc2ccccc12` (stereo not shown) [Propranolol HCl]: under setting [1], the “fold increase in IFN-β release” value is 2.07 fold. The same measure, in the same setting: next, `CCc1nc(N)nc(N)c1-c1ccc(Cl)cc1` [Pyrimethamine]: 5.22 fold; `CC(C)(C)c1cc(NC(=O)Nc2ccc(-c3cn4c(n3)sc3cc(OCCN5CCOCC5)ccc34)cc2)no1` [Quizartinib (AC220), Quizartinib]: 0.91 fold; `O=C(NCc1cccc(O)c1)Nc1nc(-c2ccncc2)cs1` [RKI-1447]: 2.41 fold. Regarding `Cc1nnc(C(=O)NC(C)(C)c2nc(C(=O)NCc3ccc(F)cc3)c(O)c(=O)n2C)o1` [Raltegravir (MK-0518), Raltegravir], under setting [1], the “fold increase in IFN-β release” value turned out to be 4.80 fold. Same read-out and setting: next, `CCC(=O)NCC[C@@H]1CCc2ccc3c(c21)CCO3` [Ramelteon]: 0.56 fold. Regarding `CNC(=C[N+](=O)[O-])NCCSCc1ccc(CN(C)C)o1` [Ranitidine], the “fold increase in IFN-β release” value under setting [1] turned out to be 2.87 fold.

Consider `C#CCN[C@@H]1CCc2ccccc21` [Rasagiline Mesylate], for which the “fold increase in IFN-β release” value under setting [1] is reported as 1.77 fold. Turning to `O=C(NC(Cc1cc(=O)[nH]c2ccccc12)C(=O)O)c1ccc(Cl)cc1` (stereo not shown) [Rebamipide], the “fold increase in IFN-β release” value under setting [1] is reported as 2.54 fold. For `COc1cc(F)c(F)c(Nc2ccc(I)cc2F)c1NS(=O)(=O)C1(C[C@H](O)CO)CC1` [Refametinib (RDEA119, Bay 86-9766), Refametinib], under setting [1], the “fold increase in IFN-β release” value was 0.64 fold.

As to `Cc1cccc(-c2[nH]ncc2-c2ccc3ncccc3n2)n1` [RepSox], the “fold increase in IFN-β release” value came out at 0.99 fold. Take `CO[C@H]1C[C@@H]2CC[C@@H](C)[C@@](O)(O2)C(=O)C(=O)N2CCCC[C@H]2C(=O)O[C@H]([C@H](C)C[C@@H]2CC[C@@H](OP(C)(C)=O)[C@H](OC)C2)CC(=O)[C@H](C)/C=C(\C)[C@@H](O)[C@@H](OC)C(=O)[C@H](C)C[C@H](C)/C=C/C=C/C=C/1C` [Ridaforolimus (Deforolimus, MK-8669), Ridaforolimus]: the “fold increase in IFN-β release” value under setting [1] is reported as 0.58 fold.

In the case of `COc1cc(OC)c(/C=C/S(=O)(=O)Cc2ccc(OC)c(NCC(=O)O)c2)c(OC)c1` [Rigosertib (ON-01910), Rigosertib], the “fold increase in IFN-β release” value under setting [1] worked out at 0.96 fold. Same read-out and setting: next, `Cc1c(C(=O)NN2CCCCC2)nn(-c2ccc(Cl)cc2Cl)c1-c1ccc(Cl)cc1` [Rimonabant]: 0.81 fold; `O=C(NC[C@H]1CN(c2ccc(N3CCOCC3=O)cc2)C(=O)O1)c1ccc(Cl)s1` [Rivaroxaban]: 0.54 fold; `CN(C)CCc1c[nH]c2ccc(Cn3cncn3)cc12` [Rizatriptan Benzoate]: 2.85 fold. Same read-out and setting: next, `COc1cc(C(=O)NC2CCN(C)CC2)ccc1Nc1ncc2c(n1)N(C1CCCC1)CC(F)(F)C(=O)N2C` [Ro3280]: 2.16 fold; `COc1ccc(C2CNC(=O)C2)cc1OC1CCCC1` (stereo not shown) [Rolipram]: 1.85 fold; `COc1cc2c(cc1OC)[C@@H]1Cc3ccc(OC)c(OC)c3CN1CC2` [Rotundine]: 0.54 fold. The same measure, in the same setting: next, `CC(=O)OCC(=O)NCCCOc1cccc(CN2CCCCC2)c1` [Roxatidine Acetate HCl]: 3.16 fold.

For the compound `N#CC[C@H](C1CCCC1)n1cc(-c2ncnc3[nH]ccc23)cn1` [Ruxolitinib (INCB018424), Ruxolitinib], the “fold increase in IFN-β release” value under setting [1] is 0.20 fold. The same measure, in the same setting: the figure for `Cc1nn(-c2ccccc2)c(C)c1/C=N/N1CCN(Cc2ccccc2)CC1` [SANT-1] is 1.49 fold. On the same count and under the same terms, next, `CCn1c(N)c(C(=O)NC)c(=O)c2ccc(C#C[C@@](C)(O)COC)nc21` [SAR131675]: 1.13 fold; `C[S+]([O-])c1ccc(-c2nc(-c3ccc(F)cc3)c(-c3ccncc3)[nH]2)cc1` (stereo not shown) [SB203580]: 0.35 fold; `Cc1cc(NC(=O)Nc2ccc(N(C)C)cc2)c2cc(F)cc(F)c2n1` [SB408124]: 1.90 fold. Same read-out and setting: the figure for `O=C1NC(=O)C(c2ccccc2[N+](=O)[O-])=C1Nc1ccc(O)c(Cl)c1` [SB415286] is 1.15 fold; for `NC(=O)c1ccc(-c2nc(-c3ccccn3)c(-c3ccc4c(c3)OCO4)[nH]2)cc1` [SB431542] it is 0.78 fold; for `O=C(Nc1ccccc1Br)N[C@@H]1CCN(c2ccc(C(F)(F)F)cn2)C1` [SB705498] it is 0.32 fold. Turning to `O=S(=O)(c1ccccc1)c1cnc2c(N3CCNCC3)cccc2c1` [SB742457], the “fold increase in IFN-β release” value under setting [1] came to 0.65 fold. For the compound `Cc1ccc(C(=O)N(CCCN)[C@@H](c2oc3cc(Cl)ccc3c(=O)c2Cc2ccccc2)C(C)C)cc1` [SB743921], the “fold increase in IFN-β release” value under setting [1] turned out to be 1.16 fold. On the same count and under the same terms, next, `O=S(=O)(CC1CS1)c1ccc(Oc2ccccc2)cc1` (stereo not shown) [SB-3CT]: 0.49 fold; `O=C(NNc1nc2cc(F)ccc2n2cccc12)c1cnccn1` [SC144]: 2.63 fold.

Consider `CC(C)N(CCCNC(=O)Nc1ccc(C(C)(C)C)cc1)C[C@H]1O[C@@H](n2cc(Br)c3c(N)ncnc32)[C@H](O)[C@@H]1O` [SGC 0946], for which, under setting [1], the “fold increase in IFN-β release” value was 1.90 fold. The same measure, in the same setting: the figure for `Cc1cc(Nc2ccc(NC(=O)c3ccc(Nc4ccnc5ccccc45)cc3)cc2)nc(N)n1` [SGI-1027] is 0.37 fold. `CN1CCC(CNc2ccc3ncc(-c4cccc(OC(F)(F)F)c4)n3n2)CC1` [SGI-1776 free base]: the “fold increase in IFN-β release” value under setting [1] is given as 0.65 fold. For the compound `Oc1ccc(Nc2nc(-c3ccc(Cl)cc3)cs2)cc1` [SKI II], the “fold increase in IFN-β release” value under setting [1] is recorded as 0.49 fold.

For `O=C1NC(=O)/C(=C/c2cccc(C(F)(F)F)c2)S1` [SMI-4a], the “fold increase in IFN-β release” value under setting [1] came out at 0.84 fold.

With `CC(C)(C)c1cnc(CSc2cnc(NC(=O)C3CCNCC3)s2)o1` [SNS-032 (BMS-387032)], under setting [1], the “fold increase in IFN-β release” value amounted to 1.01 fold. The same measure, in the same setting: the figure for `Oc1c2ccccc2c2c3c(cccc13)N=N2` [SP600125] is 3.35 fold. The same measure, in the same setting: the figure for `O=C(Nc1cc(C(F)(F)F)ccc1N1CCCCC1)c1ccncc1` [SRPIN340] is 2.38 fold; for `O=C(Nc1ccccc1-c1cn2c(CN3CCNCC3)csc2n1)c1cnc2ccccc2n1` [SRT1720] it is 0.76 fold; for `COc1c(C)c(C(=O)c2ccc(N)c(C(=O)[O-])c2)n2ccccc12.[Na+]` [SSR128129E] it is 0.98 fold. Same read-out and setting: the figure for `Cc1ccc(S(=O)(=O)Cc2nc(-c3ccc(C(=O)NCc4cccnc4)cc3)oc2C)cc1` [STF-118804] is 1.41 fold. With `Cc1[nH]c(/C=C2\C(=O)Nc3ccc(S(=O)(=O)N(C)c4cccc(Cl)c4)cc32)c(C)c1C(=O)N1CCN(C)CC1` [SU11274], the “fold increase in IFN-β release” value under setting [1] turned out to be 0.75 fold.
